# Source: patent publication US12570612B2, “Substituted nitrogen heterocyclic compound and anesthetic effect thereof” (priority 2019, dated 2026)
# Like-named read-outs stand apart in the source and are kept apart here.
# Columns and labels:
# Sprague-Dawley rats [1] = test: animal or person; type: in vivo; details: rats; for ED50: LORR, up and down method, tail vein, class symbols
# Description: (§1) Evaluating indicator: The end point of anesthesia: LORR was used as the end point of anesthesia; General anesthesia effect: the disappearance of forepaw righting reflex in rats lasting for 30 seconds is taken as the index of general anesthesia effect; Anesthesia recovery index: the recovery of rat forepaw righting reflex was used as the index of anesthesia recovery.
# Sprague-Dawley rats [2] = test: Pharmacological effect and adverse reactions under the equivalent dose (2ED50), Group C compounds; type: in vivo; details: for Righting reflex duration / Sedation duration / Onset time: 2ED50, tail vein, rats, n=8; for Onset time: unit s; for Adverse reaction: Convulsions / Adverse reaction: Cough, broken-winded / Adverse reaction: Euphoria / Adverse reaction: Red urine / Adverse reaction: Slower breathing, Tetany convulsion / Adverse reaction: Systemic stiffness, Convulsions, Opisthotonus / Adverse reaction: Tongue stretching / Adverse reaction: Tremor / Adverse reaction: the four limbs rigidity: equivalent dose (2ED50), number of rats of n = 8
# Description: (§2) Evaluation index: onset time: from the completion of drug injection to the disappearance of forepaw righting reflex in rats; Duration of anesthesia: the time from the disappearance of rat forepaw righting reflex to the recovery of rat forepaw righting reflex; Recovery time of anesthesia: the time from the […] to complete recovery;
# adrenal cortex function [3] = test: Adrenocortical function in rats: corticosterone after dexamethasone and ACTH, Group C compounds; details: for Give ACTH 30min later(S2) corticosterone concentration: drug at 2ED50, 30 min after ACTH 25 ug/kg; for Baseline(S1) corticosterone concentration: two hours after dexamethasone 0.5 mg/kg, before drug
# Protocol: (§3) Instruments and equipment: multi-function ion meter (METTLER TOLEDO, models: SevenMulti), pipetting gun (Eppendorf, specifications: 1000 ul, 200 ul, 100 ul, 10 ul), electronic balance (model: ME215S, manufacturers: Sartorius, Germany), the timer. Experimental Method: Adult male Sprague-Dawley rats (250-300 g) were selected for the experiment (n=8), all the experiment were started in the morning. Place indwelling needles in tail vein of rats and inject dexamethasone (0.5 mg/kg). The first time of blood collection (S1) is in two hours later, and give dexamethasone (0.2 mg/kg). […] All the drugs were administered in a volume of 0.6 ml and at a rate of 0.1 ml/s. 15 min later, exogenous ACTH (25 ug/kg) was injected. Another blood sample was collected after 30 min(S2). The blood samples were left standing at room temperature for 30-60 min, followed by centrifugation at 3500 rpm for 10 min. The supernatant was taken and centrifuged again at 15000 rpm for 5 min before being frozen and stored in a −20° C. refrigerator.
# (§4) Evaluation indexes: The concentration of the corticosterone in the supernatant of rats before and after given drugs.
# SD rats [4] = details: for After the infusion is stopped: Righting reflex recovery time / Recovery time after stopping infusion: after 1 hour continuous infusion at 2 times the MIR; for After the infusion is stopped: Righting reflex recovery time / Recovery time after stopping infusion / Sedation onset time: SD rats; for Types and incidence of adverse reactions: Red urine / Types and incidence of adverse reactions: Tremor: continuous infusion 2 x MIR 1 hour, rats affected/rats; for Sedation onset time: continuous tail vein infusion at 2 times the MIR
# Protocol: (§5) Experimental Methods: Adult male SD rats with body weight ranging from 250 g to 350 g were selected for continuous infusion test.
# (§6) Evaluation indexes: the time from the beginning of continuous infusion to the […] of sedation in rats; the time from the cessation of infusion to the restoration of the forepaw turning reflex after 1 hour of continuous infusion; the time from the cessation of infusion to the complete restoration of rats after 1 hour of continuous infusion.
# Sprague-Dawley rats [5] = type: in vivo; details: tail vein
# Sprague-Dawley rats [6] = test: animal or person; type: in vivo; details: rats
# Description: as §1, with “the disappearance of forepaw righting reflex (lorr)” for “LORR”
# Sprague-Dawley rats [7] = test: Pharmacological effect and adverse reactions under the equivalent dose (2ED50), Group D compounds; type: in vivo
# Description: as §2
# adrenal cortex function [8] = test: Adrenocortical function in rats: corticosterone after dexamethasone and ACTH, Group D compounds; details: for Baseline(S1) corticosterone concentration: before drug
# Protocol: as §3, with “Equipment:” for “equipment:”, “min (S2).” for “min(S2).”
# as §4
# SD rats [9] = tested on: SD rats
# Protocol: as §5, §6
# Sprague-Dawley rats [10] = type: in vivo; details: tail vein; remark: listed apart in the source
# [11] = equivalent dose (2 × ED50), number of rats of n = 8
# [12] = after 1 hour continuous infusion at 2 times the MIR, SD rats
# [13] = continuous infusion 2 x MIR 1 hour, rats affected/rats
compound,measurement,setting,value
C#CCOCC(=O)c1cc(F)nn1[C@H](C)c1ccccc1 [Compound C15],ED50,Sprague-Dawley rats [1],"++++ (++++ indicates that the measured ED50 is in the range of 2.00-10.00 mg/kg (excluding 2.00 mg/kg, including 6.00 mg/kg))"
same,Approximate therapeutic index,Sprague-Dawley rats [1],>3.4
same,Righting reflex duration,Sprague-Dawley rats [2],2.13 ± 0.59 min
same,Sedation duration,Sprague-Dawley rats [2],5.3 ± 0.92 min
same,Onset time,Sprague-Dawley rats [2],<30 s
same,Adverse reaction: Convulsions,Sprague-Dawley rats [2],0
same,"Adverse reaction: Cough, broken-winded",Sprague-Dawley rats [2],0
same,Adverse reaction: Euphoria,Sprague-Dawley rats [2],0
same,Adverse reaction: Red urine,Sprague-Dawley rats [2],8
same,"Adverse reaction: Slower breathing, Tetany convulsion",Sprague-Dawley rats [2],0
same,"Adverse reaction: Systemic stiffness, Convulsions, Opisthotonus",Sprague-Dawley rats [2],0
same,Adverse reaction: Tongue stretching,Sprague-Dawley rats [2],0
same,Adverse reaction: Tremor,Sprague-Dawley rats [2],1
same,Adverse reaction: the four limbs rigidity,Sprague-Dawley rats [2],0
same,Give ACTH 30min later(S2) corticosterone concentration,adrenal cortex function [3],267.99 ± 33.20
same,Baseline(S1) corticosterone concentration,adrenal cortex function [3],145.90 ± 54.33
same,After the infusion is stopped: Righting reflex recovery time,SD rats [4],16 to 18 min
same,Recovery time after stopping infusion,SD rats [4],30 to 36 min
same,Types and incidence of adverse reactions: Red urine,SD rats [4],6/6
same,Types and incidence of adverse reactions: Tremor,SD rats [4],1/6
same,Sedation onset time,SD rats [4],<5 min
same,Minimal lethal dose,Sprague-Dawley rats [5],>16.8 mg/kg
CC#CCOCC(=O)c1cncn1[C@H](C)c1ccccc1 [Compound C27],ED50,Sprague-Dawley rats [1],"++ (++ means that the measured ED50 is in the range of 0.50-1.00 mg/kg (excluding 0.50 mg/kg, including 1.00 mg/kg))"
same,Approximate therapeutic index,Sprague-Dawley rats [1],>16.6
same,Righting reflex duration,Sprague-Dawley rats [2],1.48 ± 0.14 min
same,Sedation duration,Sprague-Dawley rats [2],4.39 ± 0.94 min
same,Onset time,Sprague-Dawley rats [2],<30 s
same,Adverse reaction: Convulsions,Sprague-Dawley rats [2],0
same,"Adverse reaction: Cough, broken-winded",Sprague-Dawley rats [2],0
same,Adverse reaction: Euphoria,Sprague-Dawley rats [2],0
same,Adverse reaction: Red urine,Sprague-Dawley rats [2],8
same,"Adverse reaction: Slower breathing, Tetany convulsion",Sprague-Dawley rats [2],0
same,"Adverse reaction: Systemic stiffness, Convulsions, Opisthotonus",Sprague-Dawley rats [2],1
same,Adverse reaction: Tongue stretching,Sprague-Dawley rats [2],2
same,Adverse reaction: Tremor,Sprague-Dawley rats [2],0
same,Adverse reaction: the four limbs rigidity,Sprague-Dawley rats [2],0
same,Give ACTH 30min later(S2) corticosterone concentration,adrenal cortex function [3],253.11 ± 34.56
same,Baseline(S1) corticosterone concentration,adrenal cortex function [3],180.33 ± 46.70
same,After the infusion is stopped: Righting reflex recovery time,SD rats [4],12 to 16 min
same,Recovery time after stopping infusion,SD rats [4],15 to 20 min
same,Types and incidence of adverse reactions: Red urine,SD rats [4],6/6
same,Types and incidence of adverse reactions: Tremor,SD rats [4],5/6
same,Sedation onset time,SD rats [4],<5 min
same,Minimal lethal dose,Sprague-Dawley rats [5],>13.6 mg/kg
CCOC(OCC)(OCC)C(=O)c1cncn1[C@H](C)c1ccccc1 [Compound D76],ED50,"Sprague-Dawley rats [6]; LORR, up and down method, tail vein, class symbols","++ (++ indicates that the measured ED50 is in the range of 0.50-1.00 mg/kg (excluding 0.50 mg/kg, including 1.00 mg/kg))"
same,Approximate therapeutic index,Sprague-Dawley rats [6],>31.8
same,Righting reflex duration,"Sprague-Dawley rats [7]; 2ED50, tail vein, rats, n=8",1.67 ± 1.32 min
same,Sedation duration,"Sprague-Dawley rats [7]; 2ED50, tail vein, rats, n=8",6.44 ± 1.82 min
same,Onset time,"Sprague-Dawley rats [7]; 2ED50, tail vein, rats, n=8, unit min",<1 min
same,Adverse reaction: Convulsions,Sprague-Dawley rats [7]; [11],0
same,"Adverse reaction: Cough, broken-winded",Sprague-Dawley rats [7]; [11],0
same,Adverse reaction: Euphoria,Sprague-Dawley rats [7]; [11],0
same,Adverse reaction: Four limbs rigidity,Sprague-Dawley rats [7]; [11],2
same,Adverse reaction: Red urine,Sprague-Dawley rats [7]; [11],8
same,"Adverse reaction: Slower breathing, Tetany convulsion",Sprague-Dawley rats [7]; [11],0
same,"Adverse reaction: Systemic stiffness, Convulsions, Opisthotonus",Sprague-Dawley rats [7]; [11],8
same,Adverse reaction: Tongue stretching,Sprague-Dawley rats [7]; [11],0
same,Adverse reaction: Tremor,Sprague-Dawley rats [7]; [11],0
same,Baseline(S1) corticosterone concentration,adrenal cortex function [8]; Table 17 printed a second time,153.23 ± 30.91
same,Give ACTH 30min later(S2) corticosterone concentration,"adrenal cortex function [8]; drug at 2ED50, 30 min after ACTH 25 ug/kg",277.88 ± 34.56
same,Give ACTH 30min later(S2) corticosterone concentration,"adrenal cortex function [8]; drug at 2ED50, 30 min after ACTH, Table 17 printed a second time",277.88 ± 34.56
same,Baseline(S1) corticosterone concentration,adrenal cortex function [8]; two hours after dexamethasone 0.5 mg/kg,153.23 ± 30.91
same,After the infusion is stopped: Righting reflex recovery time,SD rats [9]; [12],15 to 25 min
same,Recovery time after stopping infusion,SD rats [9]; [12],25 to 40 min
same,Types and incidence of adverse reactions: Hindlimb rigidity,SD rats [9]; [13],rigidity(2/6)
same,Types and incidence of adverse reactions: Red urine,SD rats [9]; [13],"Red urine(6/6), Hindlimb"
same,Sedation onset time,"SD rats [9]; continuous tail vein infusion at 2 times the MIR, SD rats",<5 min
same,Minimal lethal dose,Sprague-Dawley rats [10],>11.5 mg/kg
